Source: patent US10052331B2, “3-(3H-imidazo[4,5-C]pyridin-2-yl)-1H-pyrazolo[3,4-C]pyridine and therapeutic uses thereof” (Samumed, LLC, priority 2014, dated 2018)

Key:
[1] = system: Wnt activity (Wnt-responsive Sp5 promoter-luciferase reporter in SW480 cells); assay: Wnt activity screening assay: Sp5-Luc reporter gene in SW480 colon carcinoma cells; type: cell-based; conditions: Homo sapiens
Source text: The screening assay for Wnt activity is described as follows. Reporter cell lines can be generated by stably transducing cancer cell lines (e.g., colon cancer) or primary cells (e.g., IEC-6 intestinal cells) with a lentiviral construct that includes a Wnt-responsive promoter driving expression of the firefly luciferase gene.
SW480 colon carcinoma cells were transduced with a lentiviral vector expressing luciferase with a human Sp5 promoter consisting of a sequence of eight TCF/LEF binding sites. SW480 cells stably expressing the Sp5-Luc reporter gene and a hygromycin resistance gene were selected by treatment with 150 μg/ml of hygromycin for 7 days. These stably transduced SW480 cells were expanded in cell culture and used for all further screening activities. For Sp5-Luc reporter gene assays, the cells were plated at 10,000 cells/well in 96-well plates with growth medium containing 10% fetal calf serum and incubated overnight at 37° C. and 5% CO2. Each compound was dissolved in DMSO as a 10 mM stock in standard j-vials and used to prepare compound source plates in dose-response format with 3-fold serial dilutions and a 10 mM top concentration. Compound transfer from serially diluted source plates to assay plates containing the cells was accomplished using a pintool (Multimek 96, Beckman equipped with V&P Scientific FP1S50H pins) based liquid handling protocol. This protocol used a slotted pin to transfer 50 nl of compound from a source plate well to an assay plate well containing 50 μl of cells in growth medium. […] Control wells received 50 nl of DMSO treatment for normalization and calculating IC50 values. The treated cells were incubated at 37° C. and 5% CO2 for an additional forty-two hours. Following incubation, the growth medium was removed and 50 μl of BrightGlo luminescence reagent (Promega) was added to each well of the 96-well assay plates. The plates were placed on an orbital shaker for 5 min and then luminescence was quantified on the Victor3 (Perkin Elmer) plate reader. Readings were normalized to DMSO only treated cells, and normalized activities were utilized for IC50 calculations using the dose-response log (inhibitor) vs. response-variable slope (four parameters) nonlinear regression feature available in GraphPad Prism 5.0 or 6.0.

[2] = system: primary human fibroblasts derived from IPF patients (LL29 cells); assay: Inhibition of fibrotic process: αSMA staining in TGF-β1-treated primary human fibroblasts from IPF patients (LL29 cells); type: cell-based; conditions: Fibroblast, 96 h, LL29 cells treated with TGF-β1 (20 ng/mL), 4 days, 11-point dose-response from 10 μM to 1.87 nM, read-out: Inhibition of fibrosis EC50
Source text: The above synthesized compounds were screened using primary human fibroblasts (derived from IPF patients) treated with TGF-β1 to determine their ability to inhibit the fibrotic process.
Primary human fibroblasts derived from IPF patients (LL29 cells) [^1Xiaoqiu Liu, et. al., “Fibrotic Lung Fibroblasts Show Blunted Inhibition by cAMP Due to Deficient cAMP Response Element-Binding Protein Phosphorylation”, Journal of Pharmacology and Experimental Therapeutics (2005), 315(2), 678-687; ^2Watts, K. L., et. al., “RhoA signaling modulates cyclin D1 expression in human lung fibroblasts; implications for idiopathic pulmonary fibrosis”, Respiratory Research (2006), 7(1), 88] were obtained from American Type Culture Collection (ATCC) and expanded in F12 medium supplemented with 15% Fetal Bovine Serum and Penicillin/Streptomycin.
Each compound was dissolved in DMSO as a 10 mM stock and used to prepare compound source plates. Serial dilution (1:2, 11-point dose-response curves from 10 μM to 1.87 nM) and compound transfer was performed using the ECHO 550 (Labcyte, Sunnyvale, Calif.) into 384-well clear bottom assay plates (Greiner Bio-One) with appropriate DMSO backfill for a final DMSO concentration of 0.1%. LL29 cells were plated at 1,500 cells/well in 80 μl/well F12 medium supplemented with 1% Fetal Bovine Serum. One hour after addition of the cells, TGF-β1 (Peprotech; 20 ng/mL) was added to the plates to induce fibrosis (ref. 1 and 2 above). Wells treated with TGF-β1 and containing DMSO were used as controls. Cells were incubated at 37° C. and 5% CO2 for 4 days. Following incubation for 4 days, SYTOX green nucleic acid stain (Life Technologies [Thermo Fisher Scientific]) was added to the wells at a final concentration of 1 uM and incubated at room temperature for 30 min. Cells were then fixed using 4% formaldehyde (Electron Microscopy Sciences), washed 3 times with PBS followed by blocking and permeabilization using 3% Bovine Serum Albumin (BSA; Sigma) and 0.3% Triton X-100 (Sigma) in PBS. Cells were then stained with antibody specific to α-smooth muscle actin (αSMA; Abcam) (ref. 1 and 2 above) in 3% Bovine Serum Albumin (BSA; Sigma) and 0.3% Triton X-100 (Sigma) in PBS, and incubated overnight at 4° C. Cells were then washed 3 times with PBS, followed by incubation with Alexa Flor-647 conjugated secondary antibody (Life Technologies [Thermo Fisher Scientific]) and DAPI at room temperature for 1 hour. Cells were then washed 3 times with PBS and plates were sealed for imaging. αSMA staining was imaged by excitation at 630 nm and emission at 665 nm and quantified using the Compartmental Analysis program on the CellInsight CX5 (Thermo Scientific). Dead or apoptotic cells were excluded from analysis based on positive SYTOX green staining. % of total cells positive for αSMA were counted in each well and normalized to the average of 11 wells treated with TGF-β1 on the same plate using Dotmatics' Studies Software. The normalized averages (fold change over untreated) of 3 replicate wells for each compound concentration were used to create dose-responses curves and EC50 values were calculated using non-linear regression curve fit in the Dotmatics' Studies Software. The EC50 values are reported.

| SMILES | IC50 [1] | EC50 [2] |
| --- | --- | --- |
| CCC(=O)Nc1cncc(-c2cc3c(-c4nc5c(-c6cccnc6)cncc5[nH]4)n[nH]c3cn2)c1 [Compound 79, N-(5-(3-(7-(Pyridin-3-yl)-3H-imidazo[4,5-c]pyridin-2-yl)-1H-pyrazolo[3,4-c]pyridin-5-yl)pyridin-3-yl)propionamide] | > 10000 nM | 18 nM |
| CS(=O)(=O)NCc1cc(F)cc(-c2cncc3[nH]c(-c4n[nH]c5cnc(-c6cncnc6)cc45)nc23)c1 [Compound 416, N-(3-Fluoro-5-(2-(5-(pyrimidin-5-yl)-1H-pyrazolo[3,4-c]pyridin-3-yl)-3H-imidazo[4,5-c]pyridin-7-yl)benzyl)methanesulfonamide] | > 10000 nM | ≥ 9990 nM |
| CN(C)CC(=O)Nc1cncc(-c2cc3c(-c4nc5c(-c6cccc(F)c6)cncc5[nH]4)n[nH]c3cn2)c1 [Compound 1367, 2-(Dimethylamino)-N-(5-(3-(7-(3-fluorophenyl)-3H-imidazo[4,5-c]pyridin-2-yl)-1H-pyrazolo[3,4-c]pyridin-5-yl)pyridin-3-yl)acetamide] | 512 nM | 144 nM |
| c1ccc(-c2cncc3[nH]c(-c4n[nH]c5cnc(-c6cncc(CNCC7CCCC7)c6)cc45)nc23)nc1 [Compound 154, 1-Cyclopentyl-N-((5-(3-(7-(pyridin-2-yl)-3H-imidazo[4,5-c]pyridin-2-yl)-1H-pyrazolo[3,4-c]pyridin-5-yl)pyridin-3-yl)methyl)methanamine] | 945 nM | 649 nM |
| Fc1cccc(-c2cncc3[nH]c(-c4n[nH]c5cnc(-c6ccccn6)cc45)nc23)c1 [Compound 901, 3-(7-(3-Fluorophenyl)-3H-imidazo[4,5-c]pyridin-2-yl)-5-(pyridin-2-yl)-1H-pyrazolo[3,4-c]pyridine] | 805 nM | 584 nM |
| CCNCc1cncc(-c2cc3c(-c4nc5c(-c6ccccn6)cncc5[nH]4)n[nH]c3cn2)c1 [Compound 136, N-((5-(3-(7-(Pyridin-2-yl)-3H-imidazo[4,5-c]pyridin-2-yl)-1H-pyrazolo[3,4-c]pyridin-5-yl)pyridin-3-yl)methyl)ethanamine] | 562 nM | 598 nM |
| CN(C)CCNc1cc(F)cc(-c2cncc3[nH]c(-c4n[nH]c5cnc(-c6cncc(CNCC7CCCC7)c6)cc45)nc23)c1 [Compound 440, N^1-(3-(2-(5-(5-(((Cyclopentylmethyl)amino)methyl)pyridin-3-yl)-1H-pyrazolo[3,4-c]pyridin-3-yl)-3H-imidazo[4,5-c]pyridin-7-yl)-5-fluorophenyl)-N2,N2-dimethylethane-1,2-diamine] | 1210 nM | ≤ 9 nM |
| Cc1ccncc1-c1cc2c(-c3nc4c(-c5ccncc5)cncc4[nH]3)n[nH]c2cn1 [Compound 109, 5-(4-Methylpyridin-3-yl)-3-(7-(pyridin-4-yl)-3H-imidazo[4,5-c]pyridin-2-yl)-1H-pyrazolo[3,4-c]pyridine] | > 10000 nM | ≥ 9990 nM |

The next compounds have a lower IC50 [1] than those just listed; values first:

| IC50 [1] | SMILES | EC50 [2] |
| --- | --- | --- |
| 310 nM | CN(C)c1cncc(-c2cc3c(-c4nc5c(N6CCCCC6)cncc5[nH]4)n[nH]c3cn2)c1 [Compound 163, N,N-Dimethyl-5-(3-(7-(piperidin-1-yl)-3H-imidazo[4,5-c]pyridin-2-yl)-1H-pyrazolo[3,4-c]pyridin-5-yl)pyridin-3-amine] | 38 nM |
| 261 nM | c1cc(-c2cncc3[nH]c(-c4n[nH]c5cnc(-c6cncc(CNCC7CCCC7)c6)cc45)nc23)co1 [Compound 284, 1-Cyclopentyl-N-((5-(3-(7-(furan-3-yl)-3H-imidazo[4,5-c]pyridin-2-yl)-1H-pyrazolo[3,4-c]pyridin-5-yl)pyridin-3-yl)methyl)methanamine] | 908 nM |
| 179 nM | Fc1ccc(-c2cncc3[nH]c(-c4n[nH]c5cnc(-c6cncnc6)cc45)nc23)cc1 [Compound 52, 3-(7-(4-Fluorophenyl)-3H-imidazo[4,5-c]pyridin-2-yl)-5-(pyrimidin-5-yl)-1H-pyrazolo[3,4-c]pyridine] | 1200 nM |
| 156 nM | O=C(Nc1cncc(-c2cc3c(-c4nc5c(-c6ccccc6F)cncc5[nH]4)n[nH]c3cn2)c1)C1CCCC1 [Compound 73, N-(5-(3-(7-(2-Fluorophenyl)-3H-imidazo[4,5-c]pyridin-2-yl)-1H-pyrazolo[3,4-c]pyridin-5-yl)pyridin-3-yl)cyclopentanecarboxamide] | 4330 nM |
| 76.7 nM | CCCC(=O)Nc1cncc(-c2cc3c(-c4nc5c(-c6ccc(F)cc6)cncc5[nH]4)n[nH]c3cn2)c1 [Compound 43, N-(5-(3-(7-(4-Fluorophenyl)-3H-imidazo[4,5-c]pyridin-2-yl)-1H-pyrazolo[3,4-c]pyridin-5-yl)pyridin-3-yl)butyramide] | 76 nM |
| 71.8 nM | CN(C)c1cncc(-c2cc3c(-c4nc5c(-c6cccc(F)c6)cncc5[nH]4)n[nH]c3cn2)c1 [Compound 7, 5-(3-(7-(3-Fluorophenyl)-3H-imidazo[4,5-c]pyridin-2-yl)-1H-pyrazolo[3,4-c]pyridin-5-yl)-N,N-dimethylpyridin-3-amine] | ≤ 9 nM |
| 70.5 nM | FC1(F)CCN(Cc2cncc(-c3cc4c(-c5nc6c(-c7cccs7)cncc6[nH]5)n[nH]c4cn3)c2)C1 [Compound 311, 5-(5-((3,3-Difluoropyrrolidin-1-yl)methyl)pyridin-3-yl)-3-(7-(thiophen-2-yl)-3H-imidazo[4,5-c]pyridin-2-yl)-1H-pyrazolo[3,4-c]pyridine] | 254 nM |
| 58 nM | CS(=O)(=O)NCc1cc(F)cc(-c2cncc3[nH]c(-c4n[nH]c5cnc(-c6cncc(CNCc7ccccc7)c6)cc45)nc23)c1 [Compound 413, N-(3-(2-(5-(5-((Benzylamino)methyl)pyridin-3-yl)-1H-pyrazolo[3,4-c]pyridin-3-yl)-3H-imidazo[4,5-c]pyridin-7-yl)-5-fluorobenzyl)methanesulfonamide] | ≥ 9990 nM |
| 41.1 nM | CC(C)(C)C(=O)Nc1cncc(-c2cc3c(-c4nc5c(-c6cccc(F)c6)cncc5[nH]4)n[nH]c3cn2)c1 [Compound 8, N-(5-(3-(7-(3-Fluorophenyl)-3H-imidazo[4,5-c]pyridin-2-yl)-1H-pyrazolo[3,4-c]pyridin-5-yl)pyridin-3-yl)pivalamide] | 47 nM |
| 29.6 nM | CS(=O)(=O)NCc1cc(F)cc(-c2cncc3[nH]c(-c4n[nH]c5cnc(-c6cncc(NC(=O)C7CCC7)c6)cc45)nc23)c1 [Compound 410, N-(5-(3-(7-(3-Fluoro-5-(methylsulfonamidomethyl)phenyl)-3H-imidazo[4,5-c]pyridin-2-yl)-1H-pyrazolo[3,4-c]pyridin-5-yl)pyridin-3-yl)cyclobutanecarboxamide] | 475 nM |
